Experimental data published in patent US20260184726A1, “HETEROCYCLIC COMPOUNDS AS KINASE INHIBITORS, COMPOSITIONS, AND METHODS OF USE THEREOF” (JS INNOMED HOLDINGS LTD., priority 2022, published 2026).

Legend:
human KDR kinase = target: T1, human KDR kinase (Homo sapiens, UniProt P35968); assay: KDR Kinase Assay (mobility shift assay, ATP at Km); assay type: biochemical; details: 92 μM ATP (Km), read-out: KDR Enzymatic Activity
T1 construct: purchased Carna 08-191
Experimental: Compounds were tested by Mobility shift assay with ATP concentration at Km. The assay used human KDR kinase (Carna 08-191). Test compounds were prepared and diluted in DMSO in 3-fold serial dilutions to 50× of the final testing concentrations. The compounds were then further diluted to 5× by the kinase reaction buffer (50 mM HEPES pH 7.5, 0.0015% Brij-35). The enzymatic reaction for compound testing was performed in a white 384-well polypropylene plate (Corning 3573) with a total reaction volume of 25 μl containing 1.2 nM KDR, 3 μM peptide substrate FAM-P22 (GL Biochem 112393), and 92 μM ATP (Sigma A7699-1G). The assay started with loading RET diluted in kinase reaction buffer to wells, followed by addition of equal volume of 5× compounds for 15-min incubation at the room temperature for pre-treatment. The enzymatic reaction was initiated by addition of mixture of the substrate and ATP prepared in kinase reaction buffer. After incubation at 28° C. for one hour, 25 μl of stopper buffer (a mixture of 100 mM HEPES pH 7.5 buffer, 0.015% Brij-35, 50 mM EDTA and 0.2% of coating reagent 3 (Cliper Lifesciences)). After 30 minutes of incubation at room temperature, the plate was read in a Caliper. Percent of control was calculated as the percentage of compound-treated vs 2% DMSO vehicle-treated. The dose-response curves were generated and the IC50s were calculated by nonlinear sigmoid curve fitting using XLFit.

human Aurora B kinase = target: T2, human Aurora B kinase (Homo sapiens, UniProt Q96GD4); assay: Aurora B Kinase Assay (mobility shift assay, ATP at Km); assay type: biochemical; details: 15 μM ATP (Km), read-out: AurB Enzymatic Activity
T2 construct: purchased Carna 05-102
Experimental: Compounds were tested by Mobility shift assay with ATP concentration at Km. The assay used human Aurora B kinase (Carna 05-102). Test compounds were prepared and diluted in DMSO in 3-fold serial dilutions to 50× of the final testing concentrations. The compounds were then further diluted to 5× by the kinase reaction buffer (50 mM HEPES pH 7.5, 0.0015% Brij-35). The enzymatic reaction for compound testing was performed in a white 384-well polypropylene plate (Corning 3573) with a total reaction volume of 25 μl containing 9 nM Aurora B, 3 μM peptide substrate FAM-P21 (GL Biochem 116370), and 15 μM ATP (Sigma A7699-1G). The assay started with loading Aurora B diluted in kinase reaction buffer to wells, followed by addition of equal volume of 5× compounds for 15-min incubation at the room temperature for pre-treatment. The enzymatic reaction was initiated by addition of mixture of the substrate and ATP prepared in kinase reaction buffer. After incubation at 28° C. for one hour, 25 μl of stopper buffer (a mixture of 100 mM HEPES pH 7.5 buffer, 0.015% Brij-35, 50 mM EDTA and 0.2% of coating reagent 3 (Cliper Lifesciences)). After 30 minutes of incubation at room temperature, the plate was read in a Caliper. Percent of control was calculated as the percentage of compound-treated vs 2% DMSO vehicle-treated. The dose-response curves were generated and the IC50 values were calculated by nonlinear sigmoid curve fitting using XLFit.

BAF3 cells = assay: BAF3 Cell Proliferation Assay (CellTiter-Glo, without RET driven, IL-3); assay type: cell-based; details: Mus musculus; growth inhibition in BAF3 cells, 72 hours, with IL-3; read-out: BAF3 Cellular Activity
Summary of the method: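 BAF3 cells in RPMI-1640 with 10% FBS and 1 ng/ml IL-3, seeded 2,000/well and settled 24 h at 37 °C, then exposed to compound at final 10 μM down to 0.0015 μM (0.1% DMSO) for 72 h. Viability by CellTiter-Glo luminescence versus DMSO controls; IC50 from curve fit.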

T2 sequence (Q96GD4 whole entry): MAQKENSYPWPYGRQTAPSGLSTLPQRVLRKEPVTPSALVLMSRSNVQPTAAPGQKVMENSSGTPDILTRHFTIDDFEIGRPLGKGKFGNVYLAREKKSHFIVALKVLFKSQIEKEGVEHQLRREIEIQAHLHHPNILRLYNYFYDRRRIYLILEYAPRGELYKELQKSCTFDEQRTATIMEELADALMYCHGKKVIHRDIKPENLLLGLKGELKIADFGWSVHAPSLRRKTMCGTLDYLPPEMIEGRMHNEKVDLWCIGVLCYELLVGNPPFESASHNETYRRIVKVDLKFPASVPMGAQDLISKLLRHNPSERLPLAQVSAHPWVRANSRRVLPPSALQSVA
T2 sequence (Q9NQS7 803-918 partner limits assumed): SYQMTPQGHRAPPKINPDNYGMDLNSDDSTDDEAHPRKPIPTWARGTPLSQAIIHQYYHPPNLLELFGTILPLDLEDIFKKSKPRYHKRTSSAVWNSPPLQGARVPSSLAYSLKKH
T1 sequence (P35968 20-1356): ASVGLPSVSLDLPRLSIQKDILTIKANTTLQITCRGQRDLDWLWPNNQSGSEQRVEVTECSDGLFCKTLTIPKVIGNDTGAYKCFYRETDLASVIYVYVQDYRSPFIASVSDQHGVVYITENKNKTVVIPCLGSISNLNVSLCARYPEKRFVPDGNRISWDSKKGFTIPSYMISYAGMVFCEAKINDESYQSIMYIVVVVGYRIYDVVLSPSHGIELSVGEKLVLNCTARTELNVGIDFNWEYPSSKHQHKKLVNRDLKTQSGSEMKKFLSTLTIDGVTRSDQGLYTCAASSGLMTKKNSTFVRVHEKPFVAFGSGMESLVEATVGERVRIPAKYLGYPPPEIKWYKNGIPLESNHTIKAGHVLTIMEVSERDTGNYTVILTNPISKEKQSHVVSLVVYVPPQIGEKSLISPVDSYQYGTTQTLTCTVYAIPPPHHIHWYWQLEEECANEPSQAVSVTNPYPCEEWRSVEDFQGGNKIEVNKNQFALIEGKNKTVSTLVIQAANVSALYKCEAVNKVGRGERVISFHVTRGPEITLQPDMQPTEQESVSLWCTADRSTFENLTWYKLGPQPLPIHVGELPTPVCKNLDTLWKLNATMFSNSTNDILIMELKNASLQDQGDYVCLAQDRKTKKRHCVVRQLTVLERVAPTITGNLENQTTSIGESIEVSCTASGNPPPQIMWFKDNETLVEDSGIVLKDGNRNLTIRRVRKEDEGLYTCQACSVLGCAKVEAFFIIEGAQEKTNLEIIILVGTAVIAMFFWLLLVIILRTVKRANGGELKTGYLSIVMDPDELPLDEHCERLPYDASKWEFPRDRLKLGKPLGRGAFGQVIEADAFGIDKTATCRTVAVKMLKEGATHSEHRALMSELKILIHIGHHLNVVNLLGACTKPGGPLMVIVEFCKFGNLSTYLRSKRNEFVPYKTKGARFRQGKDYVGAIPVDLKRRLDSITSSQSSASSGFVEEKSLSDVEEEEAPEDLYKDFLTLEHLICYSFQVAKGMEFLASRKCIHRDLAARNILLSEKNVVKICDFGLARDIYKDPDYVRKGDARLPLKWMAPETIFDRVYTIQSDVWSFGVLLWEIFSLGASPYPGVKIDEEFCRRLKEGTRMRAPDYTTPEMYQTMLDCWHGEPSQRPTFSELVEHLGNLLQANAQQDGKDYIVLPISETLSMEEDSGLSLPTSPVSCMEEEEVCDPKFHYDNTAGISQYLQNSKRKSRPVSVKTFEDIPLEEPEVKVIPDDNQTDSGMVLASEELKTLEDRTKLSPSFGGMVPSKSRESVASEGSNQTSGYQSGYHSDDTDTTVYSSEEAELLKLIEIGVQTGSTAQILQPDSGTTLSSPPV

COc1ccc(CN2C3CC2CN(c2ccc(-c4cc(-c5ccc(C(C)(C)NC(C)=O)cn5)cn5ncc(C#N)c45)cn2)C3)cn1 [Example 12, N-(2-(6-(3-cyano-4-(6-(6-((6-methoxypyridin-3-yl)methyl)-3,6-diazabicyclo[3.1.1]heptan-3-yl)pyridin-3-yl)pyrazolo[1,5-a]pyridin-6-yl)pyridin-3-yl)propan-2-yl)acetamide]
IC50 (human KDR kinase): 2 nM | IC50 (human Aurora B kinase): 25.2 nM | IC50 (BAF3 cells): 1050 nM
